Entries after “also recorded” stand apart in the source; their conditions may differ.
Experiments:
[1] = In vivo biodistribution of cold Pt-species, Pt quantified by ICP-MS; parameters: species or system C57Bl/6N mice; conditions: 24 h after i.v. injection
Experimental: The Pt-BP and Pt(NO3)2(en) complexes were administered intravenously in the tail vein of C57BL/6N mice (n = 5 per each platinum complex). Sterile saline solution (0.9% NaCl) was used to dissolve platinum complexes. The concentration of injected Pt-BP or Pt(NO3)2(en) solutions was 2.5 mM platinum, calculated based on the maximum tolerated dose for cisplatin of 6 mg per kg body weight of the mice[37]. The mice were euthanized with CO2 24 h after injection, after which blood (approximately 600 mg per mouse), liver, spleen, kidneys, heart, lungs, and bones (femur, humerus, tibia, and spine) were harvested. Approximately half of the tissues were prepared for inductively coupled plasma-mass spectrometry (ICP-MS) analysis by digestion in 65% (v/v) nitric acid at 75 °C for approximately three days until the tissues were digested completely. Each tissue was cut into three samples and the samples were weighed prior to digestion in nitric acid. The digested solutions were diluted with up to 6 ml of Milli-Q water to obtain 2% (v/v) nitric acid in order to measure platinum concentrations by ICP-MS (X series I, Thermo Electron Corporation). The detection limit for determining platinum concentration with ICP-MS was 1 ppb. The standard solutions were prepared from 1000 mg·1^−1 platinum ICP standard Certipur (1.70341.0100, Merck) ranging from 1 ppb to 2500 ppb. The measured isotopes for platinum were ^194Pt, ^195Pt, ^196Pt, and ^198Pt. Furthermore, scandium (^45Sc) was added as an internal standard, which was prepared with 1000 mg·1^−1 scandium standard Certipur (1.19513.0100, Merck) to correct for matrix effects and long-term fluctuations of the measurement signal. The platinum concentrations in the various tissues were calculated relative to 1 mg of the specific tissue and represented as ng Pt/mgtissue. Three replicates of Pt-BP and Pt(NO3)2(en) solutions with volumes and platinum concentrations identical to the solutions injected to the mice (200 µl and 2.5 mM platinum, respectively) were also analyzed for their platinum content using ICP-MS as control. The percentage of injected dose (%ID) of Pt-BP and Pt(NO3)2(en) in each mouse tissue 24 h after injection was calculated by dividing the total amount of platinum per tissue through the total amount of platinum detected in the control solutions[52].

[2] = tested on: zebrafish embryos; test: Phenotypic assessment of drug-treated zebrafish embryos; assay type: in vivo, zebrafish (Danio rerio); conditions: up to a concentration of 100 µM, until 2 days post treatment
Experimental: The zebrafish (Danio rerio) strains were kept under standard conditions (28 °C in E3 buffer) until 48 hours post fertilization (hpf) as described previously. All animal experiments were conducted at larval stages before the point of independent feeding and were in agreement with the animal protection law (Tierschutzgesetz).
48 hpf wildtype embryos were separated into 6 groups (n = 20 embryos/group), i.e., control (untreated) and embryos treated with 5 µM, 10 µM, 50 µM, and 100 µM Pt-BP as well as 30 µM cisplatin. Both types of compounds were added externally to the medium and the embryos were incubated at 33 °C for the duration of the experiment. The embryos were assessed each day for phenotypic toxicity until 2 days post treatment (48 hpt) and imaged live in an Olympus MVX10 microscope.

[3] = tested on: lateral line neuromast hair cells; test: Ototoxicity assay, DASPEI staining; assay type: in vivo, zebrafish (Danio rerio); conditions: 48 h post treatment, 5, 10 and 50 µM
Experimental: The lateral line neuromast hair cells in embryos were stained with a vital dye to analyse the loss of hair cells after Pt-BP treatment. Cisplatin was used as a control, as it was known to affect hair cells in humans. The fluorescent dye 2-[4-(dimethylamino)styryl]-N-ethylpyridinium iodide (DASPEI) [Molecular Probes, Eugene, OR] was used to stain hair cells in the neuromast as described previously. Larvae were incubated in embryo medium containing 0.005% DASPEI for 15 min, anesthetized in Tricaine MS222 (10 µg/ml) for 5 min, rinsed once in fresh embryo medium, and imaged using Vertebrate automated screening technology (VAST, Union Biometrica), combined with high-speed and super-resolution Zeiss cell observer spinning disk confocal system. The quantification of number of neuromast hair cells in the treated embryos was done manually with confocal microscopy (Zeiss LSM780).

[4] = cited from earlier work

**Q.** What does the source list for `NCCN.NCCN.O.O.O.O=S(=O)([O-])O.[NH3+]CC1(O)P2(=O)[O][Pt][O]P1(=O)[O][Pt][O]2` (stereo not shown) [Pt-BP, dinuclear bis<ethylenediamineplatinum(II) > -2-amino-1-hydroxyethane-1,1-diyl-bisphosphonate complex]?
**A.** higher affinity for bone compared to Pt(NO3)2(en) [1]: 4.5 fold; Pt uptake in hard tissue ([1]; 2.5 mM Pt): 12.18 ± 0.56 %ID/g; Pt uptake in kidney ([1]; 2.5 mM Pt): 5.70 ± 0.15 %ID/g; Pt uptake in liver ([1]; 2.5 mM Pt): 2.34 ± 0.17 %ID/g; Pt uptake in spleen ([1]; 2.5 mM Pt): 1.22 ± 0.12 %ID/g; Pt accumulation in hard tissue (bone) ([1]; 2.5 mM Pt, normalized for tissue weight): ~ 3 ng Pt/mg tissue; visible phenotypic effects [2]: did not show any phenotypic abnormality; also recorded: no visible phenotypic effects; ototoxic effect (lateral line neuromast hair cell quantification) [3]: dose-dependent ototoxic effect; stability in neutral aqueous solution ([4]; pH 7.0, room temperature): stable in neutral aqueous solution (pH 7.0, room temperature) for several months; stability in water at pH > 8.0 ([4]; pH > 8.0): rearranges rather than decomposes

From paper PMC7125202, “Targeting of radioactive platinum-bisphosphonate anticancer drugs to bone of high metabolic activity” (Scientific Reports, 2020)
